From publication PMC5884652, “New antimicrobial peptide kills drug-resistant pathogens without detectable resistance” (Oncotarget, 2018)
Ends that are not written are not given here.

What was measured:
[1] = format: in vivo; details: 30 min; topical, 200 μg/mL, hairless mouse skin, fluorescence microscopy
Procedure: Topical delivery of rhodamine-labeled CSP-4 was evaluated on hairless mouse skin. Male hairless mice (6 weeks old) bred by Hoshino Laboratory Animals, Inc. (Bandou-shi, Japan) were purchased from Japan SLC, Inc. (Hamamatsu, Japan). After anesthetizing 5 mice per group (3 groups) with isoflurane, rhodamine-labeled CSP-4 (200 μg/mL) was spread on the hairless mouse skin. The skin was then examined for reactions every 5 min for 30 min. Skin tissue was collected and washed once in PBS, fixed in 4% paraformaldehyde for 12 h, dehydrated in 50% and 100% ethanol (2 h each), and washed 3 times in xylene substitute (1 h/wash). Paraffin-embedded samples were cut into 4 μm-thick sections (Microtome; Thermo Scientific, Waltham, MA, USA) and examined under a fluorescence microscope (IX71; Olympus; Tokyo, Japan).
Supplementary Figure 2: Topical application of rhodamine-labeled CSP-4 to the skin of hairless mouse. Mice were anesthetized with isoflurane and immobilized. Rhodamine-labeled CSP-4 (200 μg/ml) was then applied to the skin in a topical spread.
Diffusion of the peptide into the skin was assessed after 5, 10, 15, 20, 25 and 30 min.
Supplementary Figure 3: Observation of GUVs (PE/PG) with peptides. […] Morphological changes and calcein leakage from the GUVs was monitored. GUVs were examined under an inverted fluorescence phase contrast microscope, and images were recoded using a digital CCD camera. […]

[2] = system: S. aureus CCARM 0027-infected hairless mice; test: Dermal infection and inflammation model; format: in vivo, mouse
Procedure: Male hairless mouse (aged 6 weeks, 5 mouse/group, total 7 groups) were injected intraepidermal with S. aureus CCARM 0027 (1 × 10^8 cfu/ml). The CSP-4 peptide (200, 100, 50, 25 μg/ml) was injected intraeptidermal into mice at 1 h after the S. aureus CCARM 0027 injection, samples of inflamed skin was collected after 7 days and 4-μm-thick sections were prepared as described in the preceding section. Each sample was then incubated for 30 min at 24° C with 5% bovine serum albumin, mouse anti-Toll-like receptor-2 (TLR-2) (AbFrontier, AB24192), mouse monoclonal anti-TNF-α (AbFrontier, AB1793), and mouse polyclonal anti-IL-1β (AbFrontier, AB1413). The samples were then washed with Tris-buffered saline containing Tween 20 buffer and incubated with HRP LF-SA5001-conjugated goat anti-mouse IgG, and stained with hematoxylin and eosin. The stained sections were examined under a fluorescence microscope.
Western blot analysis was performed as using changes in protein expression. Briefly, proteins extracted from the hairless mouse skin were separated for 3 h using 15% SDS-polyacrylamide gel electrophoresis and transferred to polyvinylidene fluoride membranes (Bio-Rad, Hercules, CA, USA) for 1 h at 90 V. The membranes were then incubated overnight at 4° C in 5% skim milk containing anti-GAPDH (LF-PA0018; Santa Cruz Biotechnology, Santa Cruz, CA, USA), mouse anti-TLR2 (AbFrontier, AB24192), mouse anti-NF-κB, (Santa Cruz Biotechnology, SC-71675), mouse anti-TNF-α (AbFrontier, AB1793), mouse anti-IL-1β (AbFrontier, AB1413), and mouse anti-cathelicidin (AbFrontier, AB93357). The membranes were then washed in Tris-buffered saline containing Tween 20 and incubated with the horseradish peroxidase (HRP)-conjugated secondary antibodies LF-SA5002 goat anti-rabbit IgG and LF-SA5001 goat anti-mouse IgG. The blots were developed using a Western Blot Detection kit (AbFrontier, LF-QC0103).
For scanning electron microscopy (SEM), S. aureus cells were cultured in LB medium (pH 5.5 or pH 7.4), washed 3 times with 10 mM sodium phosphate buffer, and stirred at 4000 rpm. CSP-4 was added to the cells and incubated at 25° C. After incubation, the cells were fixed in 4% glutaraldehyde for 20 min and dehydrated in 50% and then 100% ethanol (10 min each step) at 37° C. In addition, 7 days after inducing inflammation in hairless mouse skin tissue by infection with drug-resistant S. aureus CCARM 0027 strain or E. coli bacteria, samples of skin tissue were isolated, washed in PBS, fixed in 4% paraformaldehyde overnight at 4° C, and dehydrated in 50% and then 100% ethanol (2 h each step) at 37° C. Samples were then gold-coated and visualized by SEM (JSM-7100F; JEOL, Tokyo, Japan).

S. aureus LTA = test: Peptide-LTA binding affinity assay (dansyl polymyxin B); details: LTA 9 µg, 2.5 μM dansyl polymyxin B, 5 mM HEPES buffer pH 7.4, peptide 0.4 to 4 μM
Procedure: Lipoteichoic acid (LTA) and lipopolysaccharide (LPS) binding affinity assays were performed using a Perkin-Elmer LS55 fluorometer (Waltham, MA, USA). S. aureus LTA and E. coli LPS (9 µg) were incubated with 2.5 μM dansyl-polymyxin B in 5 mM HEPES buffer for 5–10 min at pH 7.4. The CSP-4 peptide was added in 0.4 μM increments from 0.4 to 4 μM. The increase in fluorescence intensity was assessed using a spectrofluorometer at an excitation wavelength of 340 nm and an emission wavelength of 482 nm (Perkin-Elmer LS55).

E. coli = test: Membrane depolarization (DiSC3-5); format: cell-based; details: ex 622 nm, em 670 nm
Procedure: The membrane depolarizing activities of the peptides were evaluated in E. coli cells using the membrane potential-sensitive fluorescent dye DiSC3-5 (3,3′-dipropylthiadicarbocyanine iodide). Two batches of bacterial cells (experiment and control) were grown to mid-log phase at 37° C, harvested, and washed three times with buffer A (20 mM glucose, 5 mM HEPES [pH 7.2]). The cells were then resuspended to an A600 of 0.05 in buffer A containing 0.1 M KCl, after which DiSC3-5 was added to a final concentration of […] and the mixture was incubated for 60 min until the fluorescence level stabilized. The peptides were then added to bacterial suspensions, and the changes in fluorescence were continuously recorded (excitation at 622 nm and emission at 670 nm) for 30 min [36].

FLRFIGSVKHGKGHLVHHIGVAL-NH2 [CSP-4]
Depth of penetration into skin [1]: 25–40 μm
Epidermal thickness and immune cell infiltration ([2]; 200 µg/mL and 100 µg/mL, skin collected after 7 days, hematoxylin and eosin): dose-dependent decrease
TLR-2, NF-κB, TNF-α, IL-1β, and cathelicidin levels in skin ([2]; 200 μg/mL or 100 μg/mL, Western blot): concentration-dependent decreases
Dermal collagen and elastin, uninfected mice treated with peptide alone ([2]; CSP-4 alone (200 µg/mL), SEM): not damaged
Collagen and elastin damage in infected skin ([2]; SEM, 7 days after infection): dose-dependently reduced
Binding to LTA (fluorescence of dansyl polymyxin B) (S. aureus LTA): dose-dependent increase in fluorescence intensity
Membrane depolarization (DisC3–5 fluorescence) (E. coli): dose-dependent disruption and resultant depolarization
